PubChem BioAssay AID2060499 (Molecular Pharmacology Branch, DTP, NCI, 2025)

Test system: 777334-354-R2-J4-PDC tumor spheroids with HUVEC/MSC, viability
Experiment: Anticancer human tumor 777334-354-R2-J4-PDC patient-derived pancreatic adenocarcinoma cell line growth inhibition [GQUAD]
Conditions: for IC50: curve of first compound; for viability, T/C: stronger effect = lower value
Summary of the method: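 Tumor cells were grown as complex spheroids with HUVEC endothelial cells and mesenchymal stem cells as stroma. G-quadruplex stabilizers were combined with targeted agents over half-log dilutions from near the clinical Cmax, or from 10 microM.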

[1] = second compound 0.0316 µM, first compound 0.0316 µM
[2] = second compound 0.0316 µM, first compound 0.1 µM
[3] = second compound 0.0316 µM, first compound 0.316 µM
[4] = second compound 0.0316 µM, first compound 1 µM
[5] = second compound 0.0316 µM, first compound 3.16 µM
[6] = second compound 0.0316 µM, first compound 10 µM
[7] = second compound 0.1 µM, first compound 0.0316 µM
[8] = second compound 0.1 µM, first compound 0.1 µM
[9] = second compound 0.1 µM, first compound 0.316 µM
[10] = second compound 0.1 µM, first compound 1 µM
[11] = second compound 0.1 µM, first compound 3.16 µM
[12] = second compound 0.1 µM, first compound 10 µM
[13] = second compound 0.316 µM, first compound 0.0316 µM
[14] = second compound 0.316 µM, first compound 0.1 µM
[15] = second compound 0.316 µM, first compound 0.316 µM
[16] = second compound 0.316 µM, first compound 1 µM
[17] = second compound 0.316 µM, first compound 3.16 µM
[18] = second compound 0.316 µM, first compound 10 µM
[19] = second compound 1 µM, first compound 0.0316 µM
[20] = second compound 1 µM, first compound 0.1 µM
[21] = second compound 1 µM, first compound 0.316 µM
[22] = second compound 1 µM, first compound 1 µM
[23] = second compound 1 µM, first compound 3.16 µM
[24] = second compound 1 µM, first compound 10 µM
[25] = second compound 3.16 µM, first compound 0.0316 µM
[26] = second compound 3.16 µM, first compound 0.1 µM
[27] = second compound 3.16 µM, first compound 0.316 µM
[28] = second compound 3.16 µM, first compound 1 µM
[29] = second compound 3.16 µM, first compound 3.16 µM
[30] = second compound 3.16 µM, first compound 10 µM
[31] = second compound 10 µM, first compound 0.0316 µM
[32] = second compound 10 µM, first compound 0.1 µM
[33] = second compound 10 µM, first compound 0.316 µM
[34] = second compound 10 µM, first compound 1 µM
[35] = second compound 10 µM, first compound 3.16 µM
[36] = second compound 10 µM, first compound 10 µM
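Further: spheroids exposed to compounds for 7 days before readout.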

`C=CC(=O)N1CCN(c2nc(=O)n(-c3c(C)ccnc3C(C)C)c3nc(-c4c(O)cccc4F)c(F)cc23)C(C)C1` (stereo unspecified) + Cc1[nH]c2ccc(F)cc2c1-c1nc2c3cccnc3c3ncccc3c2[nH]1 gave an IC50 (second compound 0.0316 µM) of over 10 µM, an IC50 (second compound 0.1 µM) of over 10 µM and an IC50 (second compound 0.316 µM) of over 10 µM. For the same molecule, the IC50 (second compound 1 µM) was over 10 µM, the IC50 (second compound 3.16 µM) was under 0.0316 µM and the IC50 (second compound 10 µM) was under 0.0316 µM. It also gave a viability, T/C [1] of 108%, a viability, T/C [2] of 86.6% and a viability, T/C [3] of 111%. For the same molecule, the viability, T/C [4] was 95.7%, the viability, T/C [5] was 118% and the viability, T/C [6] was 114%. For the same molecule, the viability, T/C [7] was 99.8%, the viability, T/C [8] was 89.5% and the viability, T/C [9] was 105%. The viability, T/C [10] was 91.3%, the viability, T/C [11] was 102% and the viability, T/C [12] was 120%. The viability, T/C [13] was 82.6%, the viability, T/C [14] was 91.8% and the viability, T/C [15] was 92%. For the same molecule, the viability, T/C [16] was 108%, the viability, T/C [17] was 110% and the viability, T/C [18] was 97.1%. The viability, T/C [19] was 81.3%, the viability, T/C [20] was 79.8% and the viability, T/C [21] was 91.6%. The viability, T/C [22] was 91.5%, the viability, T/C [23] was 98.9% and the viability, T/C [24] was 94.3%. The viability, T/C [25] was 34.3%, the viability, T/C [26] was 44.6% and the viability, T/C [27] was 40.6%. For the same molecule, the viability, T/C [28] was 41%, the viability, T/C [29] was 47% and the viability, T/C [30] was 40.4%. The viability, T/C [31] was 28.9%, the viability, T/C [32] was 31.5% and the viability, T/C [33] was 34.7%. For the same molecule, the viability, T/C [34] was 22.7%, the viability, T/C [35] was 22.9% and the viability, T/C [36] was 46.4%.
For `Cc1cccc(N(C)C(=O)C2C(O)CCN2c2nc(C)cc(C(F)(F)F)c2C#N)c1` (stereo unspecified) + CN(C)c1ccc(Nc2c3ccc(NC(=O)CCN4CCCC4)cc3nc3cc(NC(=O)CCN4CCCC4)ccc23)cc1, the IC50 (second compound 0.0316 µM) was over 10 µM, the IC50 (second compound 0.1 µM) was over 10 µM and the IC50 (second compound 0.316 µM) was over 10 µM. For the same molecule, the IC50 (second compound 1 µM) was over 10 µM, the IC50 (second compound 3.16 µM) was over 10 µM and the IC50 (second compound 10 µM) was 10 µM. The viability, T/C [1] was 89.3%, the viability, T/C [2] was 87.3% and the viability, T/C [3] was 101%. It also gave a viability, T/C [4] of 87.2%, a viability, T/C [5] of 93.2% and a viability, T/C [6] of 89.7%. The viability, T/C [7] was 87.1%, the viability, T/C [8] was 93.3% and the viability, T/C [9] was 85.1%. For the same molecule, the viability, T/C [10] was 93.1%, the viability, T/C [11] was 95.2% and the viability, T/C [12] was 90.9%. It also gave a viability, T/C [13] of 95.3%, a viability, T/C [14] of 79.1% and a viability, T/C [15] of 94.8%. For the same molecule, the viability, T/C [16] was 89.1%, the viability, T/C [17] was 106% and the viability, T/C [18] was 88.5%. The viability, T/C [19] was 90.7%, the viability, T/C [20] was 82.5% and the viability, T/C [21] was 76.6%. It also gave a viability, T/C [22] of 84.1%, a viability, T/C [23] of 96.7% and a viability, T/C [24] of 81.8%. It also gave a viability, T/C [25] of 77%, a viability, T/C [26] of 71.2% and a viability, T/C [27] of 85.1%. The viability, T/C [28] was 75.3%, the viability, T/C [29] was 80.1% and the viability, T/C [30] was 80.6%. For the same molecule, the viability, T/C [31] was 73.7%, the viability, T/C [32] was 79% and the viability, T/C [33] was 69.9%. For the same molecule, the viability, T/C [34] was 71.7%, the viability, T/C [35] was 62.8% and the viability, T/C [36] was 50%.
For `O=C(NO)c1cnc(N2CCN(S(=O)(=O)c3ccc4ccccc4c3)CC2)nc1` + Cc1cnc(CNC(=O)c2c(=O)c3ccc(N4CCCN(C)CC4)nc3n3c2sc2ccccc23)cn1, the IC50 (second compound 0.0316 µM) was 0.726 µM, the IC50 (second compound 0.1 µM) was 0.332 µM and the IC50 (second compound 0.316 µM) was 0.537 µM. The IC50 (second compound 1 µM) was 0.474 µM, the IC50 (second compound 3.16 µM) was 0.331 µM and the IC50 (second compound 10 µM) was under 0.0316 µM. It also gave a viability, T/C [1] of 83.7%, a viability, T/C [2] of 71.9% and a viability, T/C [3] of 77.2%. It also gave a viability, T/C [4] of 39.7%, a viability, T/C [5] of 3.07% and a viability, T/C [6] of 0.21%. The viability, T/C [7] was 90.3%, the viability, T/C [8] was 63.1% and the viability, T/C [9] was 55.2%. The viability, T/C [10] was 36.6%, the viability, T/C [11] was 5.24% and the viability, T/C [12] was 0.33%. It also gave a viability, T/C [13] of 69.3%, a viability, T/C [14] of 72% and a viability, T/C [15] of 53.8%. The viability, T/C [16] was 42.7%, the viability, T/C [17] was 5.34% and the viability, T/C [18] was 0.23%. For the same molecule, the viability, T/C [19] was 65.6%, the viability, T/C [20] was 60% and the viability, T/C [21] was 55%. It also gave a viability, T/C [22] of 37.7%, a viability, T/C [23] of 4.8% and a viability, T/C [24] of 0.13%. For the same molecule, the viability, T/C [25] was 49%, the viability, T/C [26] was 53.8% and the viability, T/C [27] was 50.2%. For the same molecule, the viability, T/C [28] was 31.5%, the viability, T/C [29] was 0.68% and the viability, T/C [30] was 0.12%. The viability, T/C [31] was 50.2%, the viability, T/C [32] was 44.8% and the viability, T/C [33] was 48.4%. It also gave a viability, T/C [34] of 0.22%, a viability, T/C [35] of 2.65% and a viability, T/C [36] of 0.22%.
